The test system of one assay is Pasteurella multocida. Put plainly: Minimum inhibitory concentration against Pasteurella multocida was determined. It counts as functional.
Assay [1] deals with Brachyspira hyodysenteriae. The assay can be described thus: Minimum inhibitory concentration against Serpulina hyodysenteriae was determined. It is filed as functional.
Setting [2] is: Pasteurella multocida, read-out: MIC.
The mark [3] stands for this setting: Brachyspira hyodysenteriae, read-out: MIC.

In brackets after ≈: the same amount, converted by molar mass.

With `C=CCOc1ccc(/C=C(\C)C(=O)N[C@@H]2[C@H](O)[C@@H](O)CC[C@@H]2O)cc1O` (racemic), the figures for the MIC (in the assay on Pasteurella multocida; in assay [1]) were 25 µg/mL (≈ 68.8 µM) and 6.25 µg/mL (≈ 17.2 µM), respectively.

As to `C=CCOc1ccc(/C=C(\C)C(=O)N[C@@H]2[C@H](O)[C@@H](O)CC[C@@H]2O)cc1O`, the values for the MIC (in the assay with Pasteurella multocida; in assay [1]) were >200 µg/mL and 100 µg/mL (≈ 275 µM), respectively.

Turning to `CC(=O)[C@H]1O[C@@H](Oc2ccc(/C=C(\C)C(=O)N[C@@H]3[C@H](O)[C@@H](O)[C@H]4OCO[C@H]4[C@@H]3O)cc2O)[C@@H](O)[C@@H]1O` [HYGROMYCIN A], the minimal inhibitory concentration (MIC) (with Pasteurella multocida (setting [2]); in assay [1] (setting [3])) was 1.56 µg/mL (≈ 3.05 µM) each time.

With `C=CCOc1ccc(/C=C(\C)C(=O)N[C@@H]2[C@H](O)CCC[C@@H]2O)cc1O`, the minimum inhibitory concentration (MIC) in the assay with Pasteurella multocida (setting [2]) worked out at 100 µg/mL (≈ 288 µM); in assay [1] (setting [3]), 12.5 µg/mL (≈ 36 µM).

Consider `C=CCOc1ccc(/C=C(\C)C(=O)N[C@@H]2[C@H](O)[C@@H](O)[C@H]3OCO[C@H]3[C@@H]2O)cc1O`, for which the minimum inhibitory concentration (MIC) was 1.56 µg/mL (≈ 3.83 µM) in the assay with Pasteurella multocida (setting [2]) and 0.78 µg/mL (≈ 1.91 µM) in assay [1] (setting [3]).

`C/C(=C\c1ccc(O[C@@H]2O[C@H]([C@H](C)O)[C@@H](O)[C@@H]2O)c(O)c1)C(=O)N[C@@H]1CCCC[C@@H]1O`: the minimum inhibitory concentration (MIC) (in the assay with Pasteurella multocida (setting [2]); in assay [1] (setting [3])) was > 200 µg/mL in each case.

Broadly, the MIC is the lowest concentration that inhibits growth of the organism.

Source of the values: ChEMBL document CHEMBL1149984, “Hygromycin A: preparation of aminocyclitol analogs defining the minimum functionality required for biological activity” (1992).
